Assay results: US8377691B2 (priority 2006, dated 2013)
“Also recorded” adds a separate entry of the source.

Assays:
Format in all cases: biochemical
[1] = molecular target: A/M2 PR8/34 (Influenza A virus, UniProt P06821)
[2] = molecular target: B/M2 Lee40 (Influenza B virus, UniProt P03493)
[3] = molecular target: A/M2 PR8/34 (V27S31) (Influenza A virus, UniProt P06821, A27V/N31S)
[4] = molecular target: A/M2 Udorn72 with a mutation (S31N) (Influenza A virus, UniProt P0DOF5, S31N)

**Q.** For `CC(N)C12CC3CC(CC(C3)C1)C2` (stereo not drawn) [rimantadine], which “H+ transport across VLP membranes (fluorescence)” value (“H+ transport across VLP membranes” below) [1] is on record?
**A.** exerted no effect

**Q.** What about the “H+ transport across VLP membranes” value [2] of the same compound?
**A.** exerted no effect

**Q.** Which “H+ transport across VLP membranes” value [1] does the source give for `NC12CC3CC(CC(C3)C1)C2` [amantadine] here?
**A.** exerted no effect; also recorded: in the presence or absence of amantadine

**Q.** And the “H+ transport across VLP membranes” value [2]?
**A.** exerted no effect

**Q.** What about the “H+ translocation across VLP membranes (fluorescence)” value [3] of the same compound?
**A.** in the absence, but not in the presence of 100 μM of the drug

**Q.** What about the “H+ transport across VLP membranes” value [4] of the same compound?
**A.** resistant to inhibition
